Earlier results on one compound are cited in patent publication US6589744B2, “Method and kit for identification for nucleic acid modification enzymes and inhibitors thereof” (Syngenta Participations AG, priority 2001, dated 2003).

This series concerns the target T1, T4 DNA ligase (Enterobacteria phage T4, UniProt P00970).
T1 sequence (P00970 1-487): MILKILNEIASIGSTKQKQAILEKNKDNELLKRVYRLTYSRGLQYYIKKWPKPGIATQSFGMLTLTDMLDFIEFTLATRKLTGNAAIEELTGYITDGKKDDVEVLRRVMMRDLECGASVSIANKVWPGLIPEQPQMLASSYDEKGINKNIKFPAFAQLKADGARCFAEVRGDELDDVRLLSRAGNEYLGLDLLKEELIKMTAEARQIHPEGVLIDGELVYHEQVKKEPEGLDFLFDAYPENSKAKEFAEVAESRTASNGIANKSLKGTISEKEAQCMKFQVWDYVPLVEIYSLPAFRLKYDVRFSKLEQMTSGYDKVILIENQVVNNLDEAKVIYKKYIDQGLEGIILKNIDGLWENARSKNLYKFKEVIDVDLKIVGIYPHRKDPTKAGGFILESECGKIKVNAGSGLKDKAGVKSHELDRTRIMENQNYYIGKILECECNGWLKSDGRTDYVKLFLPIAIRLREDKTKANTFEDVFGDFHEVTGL
The note with it: previously determined, radiolabeled substrates and PAGE gel shift assays (Montecucco et al.).

`COc1cccc2c1C(=O)c1c(O)c3c(c(O)c1C2=O)C[C@@](O)(C(=O)CO)C[C@@H]3O[C@H]1C[C@H](N)[C@@H](O)[C@H](C)O1` [Epirubicin, epirubicin]: the concentration for half-maximal inhibition (IC50) is 2.7 µM.
